Measured values taken from ChEMBL document CHEMBL1201862, “PubChem BioAssay data set” (2004).
Calls of active or inactive are those of the source.

Tests used:
[1] = target: T1, RNA-binding protein pos-1 (Caenorhabditis elegans, UniProt G5EF15); test: inhibitors of POS-1/mex-3 RNA binding, dose response, biochemical, fluorescence polarization (AID 1964);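 further: purified POS-1 fused to maltose binding protein made in E. coli; potency of compounds blocking POS-1 binding to fluorescent RNA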
T1 sequence (G5EF15 whole entry): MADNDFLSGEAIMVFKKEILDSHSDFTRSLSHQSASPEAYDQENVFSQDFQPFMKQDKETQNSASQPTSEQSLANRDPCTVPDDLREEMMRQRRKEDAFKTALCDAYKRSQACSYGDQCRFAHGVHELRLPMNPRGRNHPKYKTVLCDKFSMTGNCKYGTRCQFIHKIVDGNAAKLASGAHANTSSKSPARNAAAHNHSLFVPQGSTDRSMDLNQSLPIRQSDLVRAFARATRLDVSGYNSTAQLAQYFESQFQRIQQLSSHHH

[2] = test system: Streptococcus sp. 'group A'; test: growth inhibition of control SK(-) GAS strain, dose response, counter-screen for streptokinase expression inhibitor project, luminescence, kanamycin, BacTiterGlo, confirmation (AID 1900); format: functional, organism-based
[3] = target: T2, Zinc finger protein mex-5 (Caenorhabditis elegans, UniProt Q9XUB2); test: MEX-5/TCR-2 RNA interaction inhibitors, dose response, biochemical, C. elegans, fluorescence polarization (AID 1960)
T2 sequence (Q9XUB2 whole entry): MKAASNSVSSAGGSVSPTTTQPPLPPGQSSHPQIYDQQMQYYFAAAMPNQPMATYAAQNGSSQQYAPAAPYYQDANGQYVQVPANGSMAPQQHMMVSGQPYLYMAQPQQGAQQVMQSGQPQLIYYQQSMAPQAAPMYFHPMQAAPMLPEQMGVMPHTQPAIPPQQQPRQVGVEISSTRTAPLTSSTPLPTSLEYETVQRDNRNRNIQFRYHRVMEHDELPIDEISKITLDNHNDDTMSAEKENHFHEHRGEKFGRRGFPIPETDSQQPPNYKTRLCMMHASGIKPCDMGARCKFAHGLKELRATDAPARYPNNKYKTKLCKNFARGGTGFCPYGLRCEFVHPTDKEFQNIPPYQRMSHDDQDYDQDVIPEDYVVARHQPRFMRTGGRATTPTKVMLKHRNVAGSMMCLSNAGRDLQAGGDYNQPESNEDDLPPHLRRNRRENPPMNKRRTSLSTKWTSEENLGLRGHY

[4] = test system: Streptococcus; test: Group A Streptococcus viability loss, dose response, counter-screen for streptokinase expression inhibitor project, luminescence, BacTiterGlo (AID 1915); format: functional, organism-based;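 further: potency for reduction of bacterial viability or growth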
[5] = target: T3, Rac GTPase-activating protein 1 (Homo sapiens, UniProt Q9H0H5); test: MgcRacGAP GTPase-activating activity inhibitors, confirmation, biochemical, ADP Hunter fluorescence, primary and confirmatory (AID 624330); format: functional
T3 sequence (Q9H0H5 whole entry): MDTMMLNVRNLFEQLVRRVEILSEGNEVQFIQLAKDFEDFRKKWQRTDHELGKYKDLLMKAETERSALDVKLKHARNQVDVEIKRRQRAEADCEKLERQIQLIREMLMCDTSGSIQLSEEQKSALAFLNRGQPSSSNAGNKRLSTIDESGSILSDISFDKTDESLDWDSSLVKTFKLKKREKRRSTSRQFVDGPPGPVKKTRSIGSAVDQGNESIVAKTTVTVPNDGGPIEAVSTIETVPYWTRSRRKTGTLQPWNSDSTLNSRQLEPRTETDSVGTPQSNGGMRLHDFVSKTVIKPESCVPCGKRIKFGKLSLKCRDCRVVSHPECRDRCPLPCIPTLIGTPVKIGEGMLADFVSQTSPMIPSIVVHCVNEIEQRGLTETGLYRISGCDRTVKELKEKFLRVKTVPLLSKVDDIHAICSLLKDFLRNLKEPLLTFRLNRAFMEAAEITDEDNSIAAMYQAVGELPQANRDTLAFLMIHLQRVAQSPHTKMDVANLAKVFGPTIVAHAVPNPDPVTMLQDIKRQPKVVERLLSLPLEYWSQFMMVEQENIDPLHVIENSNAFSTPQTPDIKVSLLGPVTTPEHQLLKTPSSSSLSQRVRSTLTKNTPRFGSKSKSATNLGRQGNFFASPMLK

[6] = target: T4, Protein RecA (Mycobacterium tuberculosis, UniProt P9WHJ3); test: Fluorescence Cell-Free Homogeneous Dose Retest to Identify Inhibitors of RecA-Intein Splicing Activity. [Related pubchem assays (depositor defined):AID2097, AID2223, AID489010, AID492950]; format: functional
T4 sequence (P9WHJ3 whole entry): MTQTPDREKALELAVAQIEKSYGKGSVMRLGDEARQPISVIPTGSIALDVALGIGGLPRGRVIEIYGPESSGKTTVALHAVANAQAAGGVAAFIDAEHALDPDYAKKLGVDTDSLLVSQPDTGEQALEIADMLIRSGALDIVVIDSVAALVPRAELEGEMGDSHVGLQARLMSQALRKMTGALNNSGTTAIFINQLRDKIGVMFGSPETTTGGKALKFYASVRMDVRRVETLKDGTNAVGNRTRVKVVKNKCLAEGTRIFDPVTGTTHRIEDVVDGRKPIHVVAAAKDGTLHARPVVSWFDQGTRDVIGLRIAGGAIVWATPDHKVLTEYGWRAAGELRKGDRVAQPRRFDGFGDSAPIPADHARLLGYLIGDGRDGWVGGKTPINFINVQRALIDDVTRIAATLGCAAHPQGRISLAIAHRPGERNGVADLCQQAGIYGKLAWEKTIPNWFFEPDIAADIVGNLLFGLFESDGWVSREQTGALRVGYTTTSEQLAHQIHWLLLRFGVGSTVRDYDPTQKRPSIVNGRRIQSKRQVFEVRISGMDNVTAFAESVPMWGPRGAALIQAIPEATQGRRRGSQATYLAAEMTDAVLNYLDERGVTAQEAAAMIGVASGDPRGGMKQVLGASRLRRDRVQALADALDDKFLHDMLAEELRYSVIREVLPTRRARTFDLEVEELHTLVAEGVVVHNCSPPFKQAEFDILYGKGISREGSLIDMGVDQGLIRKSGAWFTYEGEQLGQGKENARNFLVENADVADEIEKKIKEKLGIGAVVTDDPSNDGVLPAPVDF

[7] = target: T5, Replicative DNA helicase DnaB (Mycobacterium tuberculosis, UniProt P9WMR3); test: DnaB intein splicing inhibitors, dose response, biochemical, cell-free fluorescence (AID 449749); format: functional
T5 sequence (P9WMR3 whole entry): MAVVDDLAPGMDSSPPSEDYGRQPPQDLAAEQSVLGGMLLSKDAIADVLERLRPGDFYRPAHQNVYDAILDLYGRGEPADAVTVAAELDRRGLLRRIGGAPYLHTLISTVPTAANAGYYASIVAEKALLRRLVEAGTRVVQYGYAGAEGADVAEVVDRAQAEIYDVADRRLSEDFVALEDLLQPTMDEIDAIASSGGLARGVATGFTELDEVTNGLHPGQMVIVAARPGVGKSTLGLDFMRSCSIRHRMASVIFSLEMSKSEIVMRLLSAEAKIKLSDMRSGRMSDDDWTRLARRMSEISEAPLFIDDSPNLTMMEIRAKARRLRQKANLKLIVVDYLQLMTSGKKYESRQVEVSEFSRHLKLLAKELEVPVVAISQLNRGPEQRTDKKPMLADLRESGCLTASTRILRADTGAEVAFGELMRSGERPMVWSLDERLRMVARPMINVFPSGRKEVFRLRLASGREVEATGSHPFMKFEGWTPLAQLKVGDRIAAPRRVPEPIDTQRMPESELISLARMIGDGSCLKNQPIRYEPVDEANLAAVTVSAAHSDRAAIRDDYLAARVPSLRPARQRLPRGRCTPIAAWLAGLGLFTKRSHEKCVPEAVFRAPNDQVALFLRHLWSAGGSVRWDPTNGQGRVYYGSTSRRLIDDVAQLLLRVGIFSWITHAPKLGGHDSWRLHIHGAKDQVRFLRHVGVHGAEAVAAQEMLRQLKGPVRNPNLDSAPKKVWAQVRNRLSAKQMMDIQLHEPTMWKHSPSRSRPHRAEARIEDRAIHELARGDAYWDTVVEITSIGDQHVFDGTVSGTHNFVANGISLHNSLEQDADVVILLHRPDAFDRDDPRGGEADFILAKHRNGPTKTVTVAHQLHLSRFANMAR

[8] = cells; format: functional
[9] = target: Cytochrome P450 2C19 (Homo sapiens, UniProt P33261); test: Cytochrome panel assay with activity outcomes. Panel member name: p450-cyp2c19 Compounds with AC50 equal or less than 10 uM are considered active; format: functional; conditions: read-out: AC50
[10] = target: Cytochrome P450 2D6 (Homo sapiens, UniProt P10635);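 further: CYP2D6 member of a cytochrome P450 panel assay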
[11] = target: T6, Cytochrome P450 1A2 (Homo sapiens, UniProt P05177);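 further: PubChem cytochrome P450 panel assay, CYP1A2 panel member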
T6 sequence (P05177 whole entry): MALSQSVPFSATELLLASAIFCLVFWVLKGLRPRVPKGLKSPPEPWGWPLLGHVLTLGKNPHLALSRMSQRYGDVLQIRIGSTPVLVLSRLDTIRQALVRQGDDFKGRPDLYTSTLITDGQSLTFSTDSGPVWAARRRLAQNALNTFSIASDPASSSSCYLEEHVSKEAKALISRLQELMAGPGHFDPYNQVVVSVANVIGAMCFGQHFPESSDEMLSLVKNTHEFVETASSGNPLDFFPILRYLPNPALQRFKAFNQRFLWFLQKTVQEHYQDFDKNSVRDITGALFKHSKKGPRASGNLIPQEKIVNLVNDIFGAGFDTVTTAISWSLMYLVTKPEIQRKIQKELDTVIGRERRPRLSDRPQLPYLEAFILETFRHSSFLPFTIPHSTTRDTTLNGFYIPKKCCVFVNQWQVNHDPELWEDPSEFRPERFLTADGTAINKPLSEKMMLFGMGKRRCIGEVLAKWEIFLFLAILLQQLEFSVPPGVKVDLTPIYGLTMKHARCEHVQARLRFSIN

Chain of Cytochrome P450 2C19 (P33261 whole entry): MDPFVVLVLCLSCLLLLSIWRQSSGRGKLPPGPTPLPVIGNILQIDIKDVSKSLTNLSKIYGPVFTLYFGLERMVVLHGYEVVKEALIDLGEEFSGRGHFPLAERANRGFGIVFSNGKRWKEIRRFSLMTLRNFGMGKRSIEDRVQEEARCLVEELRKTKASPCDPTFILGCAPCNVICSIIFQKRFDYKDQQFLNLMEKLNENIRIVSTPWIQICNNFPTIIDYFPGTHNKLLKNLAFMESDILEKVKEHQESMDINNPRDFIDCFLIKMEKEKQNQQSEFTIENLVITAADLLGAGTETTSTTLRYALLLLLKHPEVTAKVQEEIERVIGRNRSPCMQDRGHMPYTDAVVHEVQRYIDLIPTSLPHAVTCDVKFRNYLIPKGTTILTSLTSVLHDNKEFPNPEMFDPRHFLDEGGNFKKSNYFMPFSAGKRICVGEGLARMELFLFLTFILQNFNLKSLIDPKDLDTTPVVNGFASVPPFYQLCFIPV
Chain of Cytochrome P450 2D6 (P10635 whole entry): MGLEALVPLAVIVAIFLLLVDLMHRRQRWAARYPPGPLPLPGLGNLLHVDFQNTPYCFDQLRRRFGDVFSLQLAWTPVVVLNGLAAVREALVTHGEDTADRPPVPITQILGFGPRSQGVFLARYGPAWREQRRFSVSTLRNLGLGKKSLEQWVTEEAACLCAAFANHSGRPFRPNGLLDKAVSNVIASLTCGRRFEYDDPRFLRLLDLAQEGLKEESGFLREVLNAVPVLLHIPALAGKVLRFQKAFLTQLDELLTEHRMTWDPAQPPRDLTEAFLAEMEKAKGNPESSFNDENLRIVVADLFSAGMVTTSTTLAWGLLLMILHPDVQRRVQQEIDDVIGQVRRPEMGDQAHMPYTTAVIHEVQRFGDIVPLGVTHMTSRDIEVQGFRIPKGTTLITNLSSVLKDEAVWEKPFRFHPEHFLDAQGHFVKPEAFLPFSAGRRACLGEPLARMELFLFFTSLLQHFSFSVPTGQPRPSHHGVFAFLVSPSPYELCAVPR

Structure (SMILES) | EC50 [1] | EC50 [3] | EC50 [6] | other results
CCOC(=O)N1CCN(C(=O)c2ccc3c(c2)NC(=O)/C(=C\c2ccc(OC)c(OC)c2)S3)CC1 | > 300 µM (not active) | > 300 µM (inconclusive) |  | EC50 [2]: 0.875 µM (active); EC50 [4]: 5.67 µM (active)
O=C(O)c1cc(-n2cccc2)ccc1N1CCOCC1 | > 300 µM (not active) | 74.3 µM (active) |  | 
NC(=O)c1ccsc1N | 10.9 µM (active) | 10.1 µM (inconclusive) |  | 
COc1ccc2[nH]c(SCC(=O)Nc3nonc3C)nc2c1 | 18.4 µM (active) | 20.7 µM (inconclusive) |  | 
Cc1cccc(N(C)S(=O)(=O)c2nnc(NC(=O)c3ccco3)s2)c1 | > 300 µM (not active) | > 300 µM (not active) |  | 
Cc1c(N(C)C)nc2ccccc2c1N |  |  |  | IC50 [5]: 102 µM (active)
O=C(NNC(=O)c1ccccc1[N+](=O)[O-])c1cnccn1 | 76.5 µM (active) | 1.25 µM (active) |  | 
CC(C)CS(=O)(=O)C1=NN2C(=N)/C(=C\c3ccc(OC(=O)c4ccco4)cc3)C(=O)N=C2S1 |  |  | 14.4 µM (active) | 
C=CCn1c(-c2cccnc2Cl)nc2ccccc21 |  |  | > 380 µM (inactive) | AC50 [7]: > 380 µM (inactive)
CCOC(=O)c1c(NC(=O)/C=C/C(=O)O)sc(C)c1-c1ccc(F)cc1 |  |  | 6.23 µM (active) | AC50 [7]: 14.3 µM (active)
CC(C)(C)NC(=O)C(c1ccc(Cl)cc1)N(Cc1ccco1)C(=O)CCl (stereo unspecified) |  |  | 1.97 µM (active) | AC50 [7]: 24.1 µM (active)
Cn1c(SCC(=O)NCc2ccc(F)cc2)nc2ccccc21 |  |  | > 380 µM (inactive) | AC50 [7]: 124 µM (active)
O=C(Oc1ccc(Br)cc1C(=S)N1CCOCC1)c1cccc([N+](=O)[O-])c1 |  |  | 23.1 µM (active) | AC50 [7]: 18.2 µM (active)
O=C(/C=C/c1c(Cl)cccc1Cl)N1CCOCC1 | > 300 µM (not active) | > 300 µM (not active) |  | 
COc1ccc(CCNC(=O)CNCC(c2ccccc2)N(C)C)cc1OC (stereo unspecified) |  |  |  | IC50 [5]: 78.4 µM (active)
OCCN1CCN(CC(O)COC(c2ccc(F)cc2)c2ccc(F)cc2)CC1 (stereo unspecified) |  |  |  | IC50 [5]: 121 µM (active)
Cc1ccccc1N=Nc1c(O)n(C)c2ccccc12 | > 300 µM (not active) | > 300 µM (not active) |  | 
CN1C(=O)C(=C2CC(c3ccccc3)N(C(=O)CCl)N2)C(=O)N(C)C1=O (stereo unspecified) |  |  | 0.351 µM (active) | AC50 [7]: 2.05 µM (active)
C=CCNC(=S)Nc1ccc(OC(=O)Nc2ccc(Cl)c(Cl)c2)cc1 |  |  |  | IC50 [5]: 89 µM (active)
CC(C)CC1C(C#N)=C(N)Oc2[nH]nc(-c3cccs3)c21 (stereo unspecified) |  |  | 58.1 µM (active) | AC50 [7]: 48.8 µM (active)
COC(=O)c1ccc(-n2c(C)ccc2-c2ccccc2)cc1 | > 300 µM (not active) | > 300 µM (not active) |  | 
CC(=O)Nc1ccc(OC(=O)c2ccc(Br)c([N+](=O)[O-])c2)cc1 |  |  |  | IC50 [8]: 10.1 µM (active); IC50 [5]: 36.4 µM (active)
CC1=NNC(=O)C1Cc1c(Cl)cccc1Cl (stereo unspecified) |  |  | 0.642 µM (active) | AC50 [7]: 1.39 µM (active)
COc1cc(C=NNC(=O)c2ccccc2-n2cccc2)ccc1O |  |  |  | IC50 [5]: 32.7 µM (active)
Oc1ccc(CCc2ccccn2)cc1 |  |  |  | IC50 [5]: 40 µM (active)
C=CCSc1nnc2c(n1)OC(c1c(C)[nH]n(-c3ccccc3)c1=O)Nc1ccccc1-2 (stereo unspecified) |  |  |  | AC50 [9]: 8.91 µM (inconclusive); AC50 [10]: 0.158 µM (inconclusive); AC50 [11]: 15.8 µM (inconclusive)
Oc1ccc(/C=N/Nc2ncc(Cl)cc2Cl)cc1 |  |  |  | IC50 [5]: 32.3 µM (active)
Oc1cccc(/C=N/N=C/c2cccc(O)c2O)c1O | 42.9 µM (active) | 24.6 µM (active) |  | 
